This is an account of results in US10106542B2, “Substituted 6,7-dihydropyrazolo[1,5-a]pyrazines as negative allosteric modulators of mGluR2 receptors” (Janssen Pharmaceutica NV, priority 2013, dated 2018).

Experiment [1] deals with Male Wiga Wistar rats. As to the kind of experiment: Reversal of LY-404039-induced decrease of palpebral opening in apomorphine-challenged rats. The experiment is classed as in vivo. Particulars: Rattus norvegicus, reversal of LY-404039-induced decrease of palpebral opening (cumulative score >26) in apomorphine challenged rats. Here is the method:
6) Reversal of LY-404039-Induced Decrease of Palpebral Opening in Apomorphine-Challenged Rats.
Male Wiga Wistar rats (Crl:WI; Charles River Germany; 220±40 g) were housed under standard laboratory conditions (21±2° C.; 50-65% relative humidity; light-dark cycle set at 12 h; lights on at 6.00 h) and fasted overnight prior to the start of the experiments (tap water remained available ad libitum). During the test period, they were housed in individual cages. The local Ethical Committee approved all studies in compliance with the Declaration of Helsinki. Palpebral opening was scored every 5 min over the first hour after injection of apomorphine (1.0 mg/kg, i.v.) in animals either pretreated or not pretreated with LY-404039 (2.5 mg/kg, s.c.) at 1 h prior to the apomorphine injection. The animals were also pretreated with test compound or solvent at a predefined interval before apomorphine challenge. The score system was: (5) exophthalmos, (4) wide open, (3) open for three-quarters, (2) half open, (1) open for one-quarter, (0) closed. The scores for palpebral opening were cumulated over the 60-min observation period. A cumulative palpebral opening score >26 was selected for drug-induced reversal of the LY-404039-induced decrease of palpebral opening (occurrence in 3.2% of control animals pretreated with LY-404039 (n=154) versus in 99.5% of control rats not pretreated with LY-404039 (n=6335)).
In animals receiving apomorphine alone the median palpebral opening is 43 whereas in animals receiving apomorphine and LY-404039, the median palpebral opening is 17.

The subject of experiment [2] is rat hippocampal brain slices. As to the kind of experiment: Long-term potentiation in the dentate gyrus of hippocampal brain slices. The experiment is classed as cell-based. The note with it: 10 μM. On the procedure: Recordings of fEPSPs were made from hippocampal brain slices using a multi-electrode array (MEA) biochip, and 3-dimensional-(3D) tip electrodes, according to a standard protocol. These recordings were used to monitor glutamate-mediated synaptic transmission (FIG. 4).
Subsequently, the effects of Co. No. 1 on synaptic function using long-term potentiation (LTP) protocols in the dentate gyms (Goeldner et. al., Neuropharmacology 2013, 64, 337-346) were evaluated.
Small magnitude LTP (110%) was induced using isolated glutamatergic-mediated fEPSP: trains of theta-burst stimulation that are known to induce LTP at these particular synapses were applied (Dinklo et al., J. Pharmacol. Exp. Ther. 2011, 336(2), 560-574). In the presence of 10 μM Co. No. 1, the magnitude of LTP was enhanced by 150% compared to baseline (p=0.005). […] At the end of the experiments, addition of 1 mM kynurenic acid to block glutamatergic neurotransmission, confirmed that the post-synaptic response is mediated by glutamate neurotransmission.

The test system of experiment [3] is rats. The experiment in a line: Reversal of the effect of the mGluR2 PAM JNJ-42153605 on scopolamine-induced hyperlocomotion. The class given is in vivo. Particulars: Rattus norvegicus, 1 h, test compound 60 min before recording, criterion total distance >1500 cm. In a few lines: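 Rats pretreated with test compound or vehicle 60 min before recording, given JNJ-42153605 (20 mg/kg, i.v.) at 30 min prior, then scopolamine (0.16 mg/kg, i.v.) immediately before. Total distance travelled over the first 30 min was video-tracked. All-or-none scoring: reversal >1500 cm, normalization >4400 cm.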

By ED50 is commonly meant the dose at which the effect has come halfway, by size or by number of responders.

In the case of `Cc1cc(-c2cnn3c2C(=O)N(c2ccc(C(F)(F)F)cc2)C[C@@H]3C)ccn1` [compound 1, (7S)-7-Methyl-3-(2-methylpyridin-4-yl)-5-[4-(trifluoromethyl)phenyl]-6,7-dihydropyrazolo[1,5-a]pyrazin-4(5H)-one], the ED50 in experiment [1] (Route PO) was found to be 0.45 mg/kg; in experiment [1] (Route SC) it was 0.3 mg/kg; in experiment [3] (Route PO) it was 0.45 mg/kg; in experiment [3] (Route SC), 3.54 mg/kg. Besides, the “post-theta potentiation (PTP)” value in experiment [2] (vehicle 120%, p=0.01, 22 slices from 4 SD rats) is listed as 160%. For the same compound, the “magnitude of LTP compared to baseline” value in experiment [2] (weak theta-burst stimulation, p=0.005, control LTP 110%) was 150%.
